Details: pH 3

SMILES: CN1CCCC1c1cccnc1.O=C(O)C(O)C(O)C(=O)O (stereo not shown) [Nicotine Bitartrate, nicotine bitartrate]
- loss of nicotine into the polymeric dosage form materials, comparison of salts: better

From patent US8256433B2 (priority 1999, dated 2012)
